PubChem BioAssay AID1963839 (Molecular Pharmacology Branch, DTP, NCI, 2024)

System: 817829-284-R-J1-PDC complex spheroid viability
Assay: Anticancer human tumor 817829-284-R-J1-PDC patient-derived colon adenocarcinoma cell line growth inhibition [POLQ]
Conditions: for IC50: curve of first compound; for viability, T/C: stronger effect = lower value
In short: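 Complex spheroid viability model combining PDC tumour cells with endothelial (HUVEC) and MSC stromal cells. Novobiocin, ART-558 or RP6685 were tested singly and in combination with standard and investigational anticancer drugs. Each was titrated in half-log steps from near clinical Cmax, or from 10 microM where Cmax was unknown.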

[1] = second compound 0.0316 µM, first compound 0.0316 µM
[2] = second compound 0.0316 µM, first compound 0.1 µM
[3] = second compound 0.0316 µM, first compound 0.316 µM
[4] = second compound 0.0316 µM, first compound 1 µM
[5] = second compound 0.0316 µM, first compound 3.16 µM
[6] = second compound 0.0316 µM, first compound 10 µM
[7] = second compound 0.1 µM, first compound 0.0316 µM
[8] = second compound 0.1 µM, first compound 0.1 µM
[9] = second compound 0.1 µM, first compound 0.316 µM
[10] = second compound 0.1 µM, first compound 1 µM
[11] = second compound 0.1 µM, first compound 3.16 µM
[12] = second compound 0.1 µM, first compound 10 µM
[13] = second compound 0.316 µM, first compound 0.0316 µM
[14] = second compound 0.316 µM, first compound 0.1 µM
[15] = second compound 0.316 µM, first compound 0.316 µM
[16] = second compound 0.316 µM, first compound 1 µM
[17] = second compound 0.316 µM, first compound 3.16 µM
[18] = second compound 0.316 µM, first compound 10 µM
[19] = second compound 1 µM, first compound 0.0316 µM
[20] = second compound 1 µM, first compound 0.1 µM
[21] = second compound 1 µM, first compound 0.316 µM
[22] = second compound 1 µM, first compound 1 µM
[23] = second compound 1 µM, first compound 3.16 µM
[24] = second compound 1 µM, first compound 10 µM
[25] = second compound 3.16 µM, first compound 0.0316 µM
[26] = second compound 3.16 µM, first compound 0.1 µM
[27] = second compound 3.16 µM, first compound 0.316 µM
[28] = second compound 3.16 µM, first compound 1 µM
[29] = second compound 3.16 µM, first compound 3.16 µM
[30] = second compound 3.16 µM, first compound 10 µM
[31] = second compound 10 µM, first compound 0.0316 µM
[32] = second compound 10 µM, first compound 0.1 µM
[33] = second compound 10 µM, first compound 0.316 µM
[34] = second compound 10 µM, first compound 1 µM
[35] = second compound 10 µM, first compound 3.16 µM
[36] = second compound 10 µM, first compound 10 µM
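Note: spheroids exposed to compounds for 7 days.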
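Throughout, for viability, T/C: 100% = DMSO vehicle-treated spheroids.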

In the case of `CC1COCCN1c1cc(C2(O)CC3CCC(C2)O3)c2cnn(-c3ccn[nH]3)c2n1` (stereo not drawn) + COC1C(OC(N)=O)C(O)C(Oc2ccc3c(O)c(NC(=O)c4ccc(O)c(CC=C(C)C)c4)c(=O)oc3c2C)OC1(C)C, the IC50 (second compound 0.0316 µM) is reported as under 31.6 nM, the IC50 (second compound 0.1 µM) is reported as under 31.6 nM and the IC50 (second compound 0.316 µM) is reported as under 31.6 nM. The IC50 (second compound 1 µM) was under 31.6 nM, the IC50 (second compound 3.16 µM) was under 31.6 nM and the IC50 (second compound 10 µM) was under 31.6 nM. For the same compound, the viability, T/C [1] was 18.5%, the viability, T/C [2] was 10.7% and the viability, T/C [3] was 3.93%. It also gave a viability, T/C [4] of 3.7%, a viability, T/C [5] of 3.65% and a viability, T/C [6] of 2.96%. The viability, T/C [7] was 29.2%, the viability, T/C [8] was 8.78% and the viability, T/C [9] was 4.49%. The viability, T/C [10] was 2.72%, the viability, T/C [11] was 3.01% and the viability, T/C [12] was 1.82%. The viability, T/C [13] was 25.9%, the viability, T/C [14] was 8.28% and the viability, T/C [15] was 5.16%. It also gave a viability, T/C [16] of 3.2%, a viability, T/C [17] of 2.69% and a viability, T/C [18] of 2.57%. The viability, T/C [19] was 24.7%, the viability, T/C [20] was 9.42% and the viability, T/C [21] was 4.54%. It also gave a viability, T/C [22] of 3.29%, a viability, T/C [23] of 3.01% and a viability, T/C [24] of 1.8%. The viability, T/C [25] was 27.9%, the viability, T/C [26] was 10.5% and the viability, T/C [27] was 4.65%. It also gave a viability, T/C [28] of 3.82%, a viability, T/C [29] of 2.76% and a viability, T/C [30] of 2.53%. The viability, T/C [31] was 21.5%, the viability, T/C [32] was 9.85% and the viability, T/C [33] was 5.03%. The viability, T/C [34] was 4.12%, the viability, T/C [35] was 2.91% and the viability, T/C [36] was 2.64%.

With `COc1cc(C2c3cc4c(cc3C(OC3OC5COC(C)OC5C(O)C3O)C3COC(=O)C23)OCO4)cc(OC)c1O` (stereo not drawn) + Cc1cccc(N(C)C(=O)C2C(O)CCN2c2nc(C)cc(C(F)(F)F)c2C#N)c1 the IC50 (second compound 0.0316 µM) was 55.1 nM, the IC50 (second compound 0.1 µM) was 56.6 nM and the IC50 (second compound 0.316 µM) was 72.1 nM. It also gave an IC50 (second compound 1 µM) of 48.6 nM, an IC50 (second compound 3.16 µM) of 47.5 nM and an IC50 (second compound 10 µM) of 45 nM. It also gave a viability, T/C [1] of 68.8%, a viability, T/C [2] of 29.6% and a viability, T/C [3] of 15.7%. The viability, T/C [4] was 17.2%, the viability, T/C [5] was 11.5% and the viability, T/C [6] was 5.61%. It also gave a viability, T/C [7] of 65.9%, a viability, T/C [8] of 34.4% and a viability, T/C [9] of 11.6%. For the same compound, the viability, T/C [10] was 20.5%, the viability, T/C [11] was 13.7% and the viability, T/C [12] was 6.16%. For the same compound, the viability, T/C [13] was 71.5%, the viability, T/C [14] was 41.7% and the viability, T/C [15] was 15.8%. It also gave a viability, T/C [16] of 16.7%, a viability, T/C [17] of 12.2% and a viability, T/C [18] of 7.12%. It also gave a viability, T/C [19] of 63.2%, a viability, T/C [20] of 26.5% and a viability, T/C [21] of 18.9%. It also gave a viability, T/C [22] of 19.1%, a viability, T/C [23] of 14.4% and a viability, T/C [24] of 6.32%. For the same compound, the viability, T/C [25] was 57.4%, the viability, T/C [26] was 38.2% and the viability, T/C [27] was 18%. For the same compound, the viability, T/C [28] was 15.7%, the viability, T/C [29] was 12.5% and the viability, T/C [30] was 6.13%. The viability, T/C [31] was 59.6%, the viability, T/C [32] was 26.6% and the viability, T/C [33] was 22.6%. It also gave a viability, T/C [34] of 17.6%, a viability, T/C [35] of 11.6% and a viability, T/C [36] of 5.64%.

`CC(C)n1c(=O)n(C)c2cnc3cc(F)c(-c4ccc(OCCCN5CCCCC5)nc4)cc3c21` + Cc1cccc(N(C)C(=O)C2C(O)CCN2c2nc(C)cc(C(F)(F)F)c2C#N)c1 gave an IC50 (second compound 0.0316 µM) of 6740 nM, an IC50 (second compound 0.1 µM) of 7640 nM and an IC50 (second compound 0.316 µM) of 8320 nM. It also gave an IC50 (second compound 1 µM) of 5970 nM, an IC50 (second compound 3.16 µM) of 8230 nM and an IC50 (second compound 10 µM) of 6080 nM. For the same compound, the viability, T/C [1] was 91.7%, the viability, T/C [2] was 77.1% and the viability, T/C [3] was 96.6%. The viability, T/C [4] was 86.3%, the viability, T/C [5] was 84.3% and the viability, T/C [6] was 32.1%. For the same compound, the viability, T/C [7] was 73.6%, the viability, T/C [8] was 107% and the viability, T/C [9] was 91.6%. The viability, T/C [10] was 76.8%, the viability, T/C [11] was 106% and the viability, T/C [12] was 37.5%. It also gave a viability, T/C [13] of 87.3%, a viability, T/C [14] of 83.3% and a viability, T/C [15] of 94.4%. For the same compound, the viability, T/C [16] was 87.6%, the viability, T/C [17] was 83% and the viability, T/C [18] was 43.8%. The viability, T/C [19] was 99.7%, the viability, T/C [20] was 86.5% and the viability, T/C [21] was 99.1%. For the same compound, the viability, T/C [22] was 72.6%, the viability, T/C [23] was 73.7% and the viability, T/C [24] was 34.4%. It also gave a viability, T/C [25] of 93.8%, a viability, T/C [26] of 70.6% and a viability, T/C [27] of 78.1%. The viability, T/C [28] was 100%, the viability, T/C [29] was 70.5% and the viability, T/C [30] was 45.8%. The viability, T/C [31] was 85.7%, the viability, T/C [32] was 81.6% and the viability, T/C [33] was 74%. The viability, T/C [34] was 67.8%, the viability, T/C [35] was 79% and the viability, T/C [36] was 28.9%.

Compound `O=C(c1cc(Cc2n[nH]c(=O)c3ccccc23)ccc1F)N1CCN(C(=O)C2CC2)CC1` + Cc1cccc(N(C)C(=O)C2C(O)CCN2c2nc(C)cc(C(F)(F)F)c2C#N)c1 has an IC50 (second compound 0.0316 µM) of 4010 nM, an IC50 (second compound 0.1 µM) of 1860 nM and an IC50 (second compound 0.316 µM) of 2630 nM. It also gave an IC50 (second compound 1 µM) of 2910 nM, an IC50 (second compound 3.16 µM) of 3650 nM and an IC50 (second compound 10 µM) of 4540 nM. The viability, T/C [1] was 75.4%, the viability, T/C [2] was 97.7% and the viability, T/C [3] was 89.7%. It also gave a viability, T/C [4] of 69.4%, a viability, T/C [5] of 59.6% and a viability, T/C [6] of 21.8%. For the same compound, the viability, T/C [7] was 84.1%, the viability, T/C [8] was 75.5% and the viability, T/C [9] was 93.3%. It also gave a viability, T/C [10] of 60.7%, a viability, T/C [11] of 42.4% and a viability, T/C [12] of 28.9%. The viability, T/C [13] was 119%, the viability, T/C [14] was 61.2% and the viability, T/C [15] was 78.2%. It also gave a viability, T/C [16] of 82.7%, a viability, T/C [17] of 44.5% and a viability, T/C [18] of 26.3%. It also gave a viability, T/C [19] of 104%, a viability, T/C [20] of 100% and a viability, T/C [21] of 74.2%. The viability, T/C [22] was 66.4%, the viability, T/C [23] was 54.2% and the viability, T/C [24] was 26.6%. For the same compound, the viability, T/C [25] was 108%, the viability, T/C [26] was 111% and the viability, T/C [27] was 81.6%. The viability, T/C [28] was 64.4%, the viability, T/C [29] was 60.3% and the viability, T/C [30] was 30.2%. For the same compound, the viability, T/C [31] was 115%, the viability, T/C [32] was 87.6% and the viability, T/C [33] was 104%. The viability, T/C [34] was 76.2%, the viability, T/C [35] was 64.6% and the viability, T/C [36] was 25.2%.
